Measurements taken from patent publication US5373020A, “Substituted 5-(2-((2-aryl-2-hydroxyethyl)amino)propyl)-1,3-benzodioxoles” (American Cyanamid Company, priority 1993, dated 1994).
Where two headings read alike, the source gives them in different places.

Tests used:
ob/ob mice = experiment: Plasma glucose, compound in chow, obese mice; assay type: in vivo, mouse (C57 B1/6J ob/ob)
Method: (§1) The compounds of this invention were tested for hypoglycemic and anti-obesity activity according to the following procedure.
(§2) Obese mice (C57 B1/6J (ob/ob)), and/or diabetic mice (C57 B1/KsJ (db/db)) were obtained from Jackson Laboratories, Bar Harbor, Maine. Obese rats (fa/fa) were obtained from Charles River Laboratories, Wilmington, Mass. Obese mice were 8 weeks of age and diabetic mice were 9 weeks of age at the start of the test. Obese rats were 12-14 weeks of age at the start.
(§3) The test compounds were dissolved in methanol, mixed with powdered Purina rodent chow on a weight of compound to weight of chow basis and thoroughly dried.
(§4) Groups of 6 control mice or rats received vehicle (methanol) treated chow.
[…] Thus, a 40 g mouse, fed the test compound at a concentration of 0.02 percent of the diet, would receive a dose of 20 mg/kg/day if it ate 4 g of chow per day.
(§5) The mice or rats were weighed before the first treatment and once at the end of each indicated treatment period.
(§6) Blood samples were collected before the first treatment and once at the end of each indicated treatment period by retro-orbital puncture using heparinized capillary tubes.
(§7) Plasma was separated by centrifugation in a Beckman microfuge for 5 minutes. Plasma glucose concentrations were determined with the Beckman glucose analyzer which uses a glucose oxidase method.

β1-receptors = target: T1, β1-receptors (Cavia porcellus, UniProt H0W3H1); experiment: Effect on heart rate of isolated right atria (β1-effect); parameters: species or system guinea pig; details: for β1 activity: CL1 vs BRL1 (FIG. 1), CL2 vs BRL2 (FIG. 2)
T1 construct: from tissue; host or cells: guinea pig right atria
Method: (§8) β-Adrenergic receptors can be divided into β1, β2 and β3 -subtypes. Activation of β1 -receptors invokes increases in heart rate while activation of β2 -receptors stimulates glycogen breakdown in muscle and thereby prevents glycogen synthesis. Activation of β3 -receptors stimulates lipolysis (the breakdown of adipose tissue triglycerides to glycerol and free fatty acids), and thereby promotes the loss of fat mass.
Selectivity of a compound was determined using the following procedures. The effect on heart rate (β1 -effect) was determined using isolated right atria. […] The right atria were dissected and clamped at one end to a tissue holder and electrode assembly (MRA Corp.) and tied at the other end to a force-displacement transducer (Gould-Statham, Burco). The tissues were maintained at 32° C. in a 50 ml capacity glass chamber (MRA Corp.) preloaded with 0.5 g tension. Heart rate was monitored by a Grass polygragh. […] The increase in heart rate was calculated and considered to be the maximum response for that tissue. The tissues were then washed and allowed to equilibrate for 90 minutes. Cumulative concentration-response curves were then determined for each compound or vehicle. All responses were measured 5 minutes post-exposure.

db/db mice = experiment: Plasma glucose, compound in chow, diabetic mice; assay type: in vivo, mouse (C57 B1/KsJ db/db); details: dose 0.005 % wt of chow
Method: as §1, §2, §3, §4
Groups of 6 test mice were fed ad libitum for up to seven weeks and food consumption was measured daily by weighing the food bins before and after the addition of fresh chow. Thus, a 40 g mouse, fed the test compound at a concentration of 0.02 percent of the diet, would receive a dose of 20 mg/kg/day if it ate 4 g of chow per day.
as §5, §6, §7

β2-receptors = target: T2, β2-receptors (Mus musculus, UniProt P18762); experiment: Inhibition of insulin-mediated incorporation of 14C-glucose into glycogen in isolated soleus muscle (β2-effect); details: for β2 activity: CL1 vs BRL1 (FIG. 1), CL2 vs BRL2 (FIG. 2)
T2 construct: Soleus muscle from mice were dissected; from tissue; host or cells: mouse soleus muscle
Method: as §8
The β2 -effect of the compounds was determined by their ability to inhibit the insulin-mediated incorporation of ^14 C-glucose into glycogen in isolated muscle. Soleus muscle from mice were dissected, tied at each end, and placed in a clamp to maintain tension. The clamped muscle was added to a vial that contained 2 ml of KHB with 1.5% bovine serum albumin, 0.3 mU/ml insulin, 5 mM (U^-14 C) glucose, and the appropriate additions of compound or vehicle. The vial was gassed with 95% O2 -5% CO2, capped, and the tissue incubated for one hour in a rotating water bath at 37° C. The muscle was then removed, rinsed in ice-cold saline, blotted and weighed. It was then added to 1 ml of 30% KOH containing 5 mg/ml of oyster glycogen, boiled for 10 minutes, and 0.4 ml of 2% Na2 SO4 and 3.2 ml of 100% ethanol added. After standing overnight at 4° C., the glycogen was pelleted by centrifugation, washed once with 66% ethanol, and repelleted. The pellet was dissolved in 1 ml of water and the amount of radioactivity present determined by liquid scintillation.

β3-receptors = target: T3, β3-receptors (Rattus norvegicus, UniProt P26255); experiment: Stimulation of adipocyte lipolysis (β3-effect); assay type: cell-based
T3 construct: Rat epididymal fat pads were excised and placed in 0.9% saline; from tissue; host or cells: collagenase-isolated adipocytes from rat epididymal fat pads
Method: as §8
The β3 -effect of the compounds was determined by their ability to stimulate adipocyte lipolysis. Rat epididymal fat pads were excised and placed in 0.9% saline. Four grams of tissue were transferred to a flask with 20 ml of aerated Krebs-Henseleit bicarbonate (KHB) buffer containing 3% fatty acid-free bovine serum albumin to which 75 mg of crude bacterial collagenase (Worthington) had been added. The tissue was incubated for about 45 minutes at 37° C. with gentle shaking. The cells were then washed three times with two volumes of KHB buffer, filtered through two layers of gauze, and brought to a final volume of 80 ml with KHB buffer. One ml aliquots of the cell suspension were added to plastic test tubes containing the appropriate additions of vehicle or compound. The cells were gassed for 1 minute with 95% O2 -5% CO2, capped, and incubated at 37° C. with continuous shaking for a total of 30 minutes. The reaction was stopped by adding 0.1 ml of 30% perchloric acid and 0.1 ml of chloroform. After centrifugation, 0.5 ml of supernatant was transferred to another test tube and neutralized with 0.04 ml of 3M K2 CO3 -0.5M triethanolamine. The amount-of glycerol generated from the hydrolysis of endogenous triglycerides was determined in a coupled-enzyme spectrophotometric assay. […] The test tubes were incubated for 40 minutes at 37° C. with constant shaking. […] This value was corrected for the amount of NADH generated in the absence of glycerol by incubating another aliquot of the neutralized extract with the same assay mixture but without glycerokinase.

[1] = dose 0.002 % wt of chow, week 0 (before treatment)
[2] = dose 0.002 % wt of chow, week 1
[3] = dose 0.005 % wt of chow, week 0 (before treatment)
[4] = dose 0.005 % wt of chow, week 1
[5] = dose 0.02 % wt of chow, week 0 (before treatment)

T3 sequence (P26255 whole entry): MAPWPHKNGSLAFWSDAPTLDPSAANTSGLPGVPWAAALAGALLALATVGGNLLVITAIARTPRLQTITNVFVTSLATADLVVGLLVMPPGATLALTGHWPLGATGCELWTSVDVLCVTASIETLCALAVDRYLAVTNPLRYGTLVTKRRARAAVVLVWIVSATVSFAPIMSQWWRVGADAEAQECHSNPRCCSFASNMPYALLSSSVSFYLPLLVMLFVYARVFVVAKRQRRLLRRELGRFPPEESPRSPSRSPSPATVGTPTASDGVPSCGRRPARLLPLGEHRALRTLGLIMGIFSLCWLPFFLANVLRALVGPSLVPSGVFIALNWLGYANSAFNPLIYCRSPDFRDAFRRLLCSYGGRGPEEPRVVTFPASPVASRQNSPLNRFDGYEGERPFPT
T2 sequence (P18762 whole entry): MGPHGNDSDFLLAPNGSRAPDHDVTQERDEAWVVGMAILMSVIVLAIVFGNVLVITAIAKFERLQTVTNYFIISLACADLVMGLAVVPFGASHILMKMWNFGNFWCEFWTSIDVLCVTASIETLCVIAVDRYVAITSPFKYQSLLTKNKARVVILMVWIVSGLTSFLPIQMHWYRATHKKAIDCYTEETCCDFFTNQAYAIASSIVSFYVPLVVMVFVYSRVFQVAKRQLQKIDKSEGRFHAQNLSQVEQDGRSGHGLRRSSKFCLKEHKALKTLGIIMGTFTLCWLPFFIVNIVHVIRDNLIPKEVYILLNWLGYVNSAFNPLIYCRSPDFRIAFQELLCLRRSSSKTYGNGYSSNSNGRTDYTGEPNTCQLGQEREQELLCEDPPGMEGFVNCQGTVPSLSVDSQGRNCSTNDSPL
T1 sequence (H0W3H1 1-470): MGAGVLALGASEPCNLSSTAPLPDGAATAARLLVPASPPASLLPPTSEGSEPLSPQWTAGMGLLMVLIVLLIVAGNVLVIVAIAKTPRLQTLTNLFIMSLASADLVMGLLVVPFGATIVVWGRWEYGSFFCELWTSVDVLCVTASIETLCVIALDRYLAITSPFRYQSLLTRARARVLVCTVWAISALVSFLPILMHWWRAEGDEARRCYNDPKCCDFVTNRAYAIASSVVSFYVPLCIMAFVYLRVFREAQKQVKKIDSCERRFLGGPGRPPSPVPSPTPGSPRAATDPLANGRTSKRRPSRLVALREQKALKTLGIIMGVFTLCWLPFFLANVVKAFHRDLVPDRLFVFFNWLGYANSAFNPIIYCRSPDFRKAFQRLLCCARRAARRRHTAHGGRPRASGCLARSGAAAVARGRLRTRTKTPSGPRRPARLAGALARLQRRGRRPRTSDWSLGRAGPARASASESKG

C[C@H](Cc1ccc2c(c1)OCO2)NC[C@H](O)c1cccc(Cl)c1 (racemic) [(R*,R*)-(+/-)-alpha-(((2-(1,3-benzodioxol-5-yl)-1-methylethyl)amino)methyl)-3-chlorobenzenemethanol mixture with (R*,S*)-(+/-)alpha-(((2-(1,3-benzodioxol-5-yl)-1-methylethyl)amino)methyl)-3-chlorobenzenemethanol, reference compound]
Plasma Glucose Levels (ob/ob mice; [1]): 226 mg/100 ml | Plasma Glucose Levels (ob/ob mice; [2]): 234 mg/100 ml | Plasma Glucose Levels (ob/ob mice; [3]): 227 mg/100 ml | Plasma Glucose Levels (ob/ob mice; [4]): 175 mg/100 ml | Plasma Glucose Levels (ob/ob mice; [5]): 227 mg/100 ml | Plasma Glucose Levels (ob/ob mice; dose 0.02 % wt of chow, week 1): 149 mg/100 ml

COC(=O)C1(C(=O)OC)Oc2ccc(C[C@@H](C)NC[C@@H](O)c3cccc(Cl)c3)cc2O1 (relative stereo) [(R*,S*)-(+/-)-5(2-((2-(3-chlorophenyl))-2-hydroxyethyl)amino)propyl)-1,3-benzodioxole-2,2-dicarboxylic acid, dimethyl ester]
Plasma Glucose Levels (ob/ob mice; [3]): 218 mg/100 ml | Plasma Glucose Levels (ob/ob mice; dose 0.005 % wt of chow, week 5): 162 mg/100 ml | Plasma Glucose Levels (ob/ob mice; dose 0.005 % wt of chow, week 10): 174 mg/100 ml | Plasma Glucose Levels (ob/ob mice; [5]): 219 mg/100 ml | Plasma Glucose Levels (ob/ob mice; dose 0.02 % wt of chow, week 5): 135 mg/100 ml | Plasma Glucose Levels (ob/ob mice; dose 0.02 % wt of chow, week 10): 153 mg/100 ml

C[C@@H](Cc1ccc2c(c1)OCO2)NC[C@H](O)c1cccc(Cl)c1 (relative stereo) [(R*,S*)-(+/-)-alpha-(((2-(1,3-benzodioxol-5-yl)-1-methylethyl)amino)methyl)-3-chlorobenzenemethanol, reference compound]
Plasma Glucose Levels (ob/ob mice; [1]): 228 mg/100 ml | Plasma Glucose Levels (ob/ob mice; [2]): 204 mg/100 ml | Plasma Glucose Levels (ob/ob mice; [3]): 226 mg/100 ml | Plasma Glucose Levels (ob/ob mice; [4]): 176 mg/100 ml | Plasma Glucose Levels (ob/ob mice; [5]): 229 mg/100 ml | Plasma Glucose Levels (ob/ob mice; dose 0.02 % wt of chow, week 1): 128 mg/100 ml

COC(=O)COc1ccc(C[C@@H](C)NC[C@H](O)c2ccc(Cl)cc2)cc1 (relative stereo) [BRL1, (R*,R*)-(±)-(4-(2-((2-(4-chlorophenyl)-2-hydroxyethyl)amino)propyl)phenoxy)-acetic acid, methyl ester, reference compound]
EC50 (β1-receptors): 200 nM | β1 activity (β1-receptors): more of the undesirable β1 and β2 activities than does CL1 | Plasma Glucose Levels (db/db mice; week 0 (before treatment)): 440 mg/100 ml | Plasma Glucose Levels (db/db mice; week 1): 138 mg/100 ml | Plasma Glucose Levels (db/db mice; week 2): 132 mg/100 ml | Plasma Glucose Levels (ob/ob mice; dose 0.0001 % wt of chow, week 0 (before treatment)): 231 mg/100 ml | Plasma Glucose Levels (ob/ob mice; dose 0.0001 % wt of chow, week 1): 143 mg/100 ml | Plasma Glucose Levels (ob/ob mice; dose 0.0001 % wt of chow, week 2): 119 mg/100 ml | Plasma Glucose Levels (ob/ob mice; dose 0.0005 % wt of chow, week 0 (before treatment)): 232 mg/100 ml | Plasma Glucose Levels (ob/ob mice; dose 0.0005 % wt of chow, week 1): 140 mg/100 ml | Plasma Glucose Levels (ob/ob mice; dose 0.0005 % wt of chow, week 2): 126 mg/100 ml | Plasma Glucose Levels (ob/ob mice; [3]): 231 mg/100 ml | Plasma Glucose Levels (ob/ob mice; [4]): 137 mg/100 ml | Plasma Glucose Levels (ob/ob mice; dose 0.005 % wt of chow, week 2): 138 mg/100 ml | EC50 (β2-receptors): 120 nM | β2 activity (β2-receptors): more of the undesirable β1 and β2 activities than does CL1 | EC50 (β3-receptors): 13 nM | β3 potency in comparison (β3-receptors; CL1 vs BRL1 (FIG. 1), CL2 vs BRL2 (FIG. 2)): slightly greater β3 potency | Selectivity for Lipolysis over Atria ((EC50 - β1)/(EC50 - β3)) (β3-receptors; ratio EC50 β1 / EC50 β3): 15 | Selectivity for Lipolysis over Gly. Syn. ((EC50 - β2)/(EC50 - β3)) (β3-receptors; ratio EC50 β2 / EC50 β3): 9

C[C@H](Cc1ccc(OCC(=O)[O-])cc1)NC[C@H](O)c1cccc(Cl)c1.[Na+] (relative stereo) [BRL2, (R*,R*)(+/-)4-(2-((2-(3-chlorophenyl)-2-hydroxyethyl)amino)propyl)phenoxy-acetic acid, monosodium salt]
EC50 (β1-receptors): 5600 nM | β1 activity (β1-receptors): significant β1 activity | EC50 (β2-receptors): 800 nM | β2 activity (β2-receptors): full agonist with measurable activity at 1×10^-7M

COC(=O)C1(C(=O)OC)Oc2ccc(C[C@@H](C)NC[C@H](O)c3cccc(Cl)c3)cc2O1 (stereo in doubt) [CL5, (R,R)(+/-)5-(2-((2-(3-chlorophenyl)-2-hydroxyethyl)-amino)propyl)-1,3-benzodioxole-2,2-dicarboxylic acid, dimethyl ester hydrobomide]
relative β3 potency of RR over SS form (β3-receptors; RR vs SS enantiomer, lipolysis): 36 fold

COC(=O)C1(C(=O)OC)Oc2ccc(C[C@H](C)NC[C@@H](O)c3cccc(Cl)c3)cc2O1 (stereo in doubt) [CL6, (S,S)(+/-)5-(2-((2-(3-chlorophenyl)-2-hydroxyethyl)-amino)propyl)-1,3-benzodioxole-2,2-dicarboxylic acid, dimethyl ester hydrobomide]
EC50 (β3-receptors; read-out: Lipolysis (β3) (EC50)): 290 nM
